Values of other authors, collected in patent US20020151447A1, “Reduced toxicity 1-bromopropane cleaning agent production process” (POLYMER SOLVENTS, INC., priority 1997, published 2002).

Legend:
[1] = 8 hour workday
mammals = settings: in vivo

In the case of `CCCBr` [1-bromopropane], the “workplace exposure limit for handlers” value [1] is listed as 100 ppm and the toxicity to mammals (mammals) is listed as “relatively low toxicity”.
